Read-outs that look alike come from different tables or passages of the source.
What was measured:
N2 (wild type) animals = system: N2 (wild type) animals
Text: (§1) To determine if the AMP/ATP ratio changed with age, we measured the levels of AMP, ADP, and ATP directly. We lysed 30 adult worms of the appropriate age, grown at the indicated temperature, lysed them, and separated the extract by Reversed Phase HPLC, measuring the Absorbance 260 nm. We used a C. elegans strain that lacks sperm at 25 C [CF512: fem-1(−); fer-15(−)].
(§2) Thirty animals of the appropriate age were hand-transferred to ice-cold lysis buffer (ATP Bioluminiscense Kit, Roche), frozen in liquid nitrogen, boiled for 15 minutes, passed trough a 0.2μ filter (Nanosep), and subjected to isocratic reversed phase chromatography using a TARGA C18 250×4.6 mm 5 μM column equilibrated in 100 mM KH2PO4, pH 6.0 at 1 mL per min. Detection at 260 nm was performed using a WATERS 486 tunable detector. Peak areas were measured using PEAK EXPLORER™ software. […] Unless noted, animals were one day old adults.
(§3) Dauer assays, heat tolerance and behavioral assays were performed as described. Starvation was performed by transfer to bacteria-free, peptone-free plates. Treatment with […] sodium azide was performed by transfer to plates with the drug; fraction alive was determined visually, six hours after transfer to normal growth. Gut fluorescence was photographed on the focal plane of the lumen with a DM505 filter on a NIKON E800 microscope. Average intensity was determined with METAMORPH™ 6.1r1 software.

amp-1(ok524) animals [1] = system: amp-1(ok524) animals
Text: as §1, §2, §3

amp-1(ok524) animals [2] = settings: 1 mM sodium azide for 18 hours; amp-1(ok524) versus wild type
Procedure: Dauer assays, heat tolerance and behavioral assays were performed as described. Starvation was performed by transfer to bacteria-free, peptone-free plates. […] Gut fluorescence was photographed on the focal plane of the lumen with a DM505 filter on a NIKON E800 microscope. Average intensity was determined with METAMORPH™ 6.1r1 software.

AMPK = settings: cited from earlier work
[3] = 1 mM Azide 4 hours, then no azide 1 hour

[N-]=[N+]=[N-] [sodium azide]
AMP/ATP Average (N2 (wild type) animals; 1 mM Azide 1 hour): 2.08 | AMP/ATP Average (N2 (wild type) animals; 1 mM Azide 4 hours): 2.53 | AMP/ATP Average (N2 (wild type) animals; [3]): 1.08 | AMP/ATP Average (amp-1(ok524) animals [1]; 1 mM Azide 1 hour): 3.19 | AMP/ATP Average (amp-1(ok524) animals [1]; 1 mM Azide 4 hours): 4.34 | AMP/ATP Average (amp-1(ok524) animals [1]; [3]): 1.24 | AMP/ATP Average (amp-1(ok524) animals [1]; 1 mM Azide 4 hours, then no azide 2 hour): 1.29 | sensitivity to killing (amp-1(ok524) animals [2]): more sensitive than wild type animals to killing

CN(C)C(=N)N=C(N)N [Metformin]
effect on AMPK activity (AMPK): stimulate AMPK activity

Leptin: peptide hormone that increases AMPK activity when applied to cells
effect on AMPK activity (AMPK; applied to cells): increases AMPK activity

B1: adiponectin: globular and full-length adiponectin protein (protein, UniProt Q15848 19-244, looked up)
Adiponectin: ETTTQGPGVLLPLPKGACTGWMAGIPGHPGHNGAPGRDGRDGTPGEKGEKGDPGLIGPKGDIGETGVPGAEGPRGFPGIQGRKGEPGEGAYVYRSAFSVGLETYVTIPNMPIRFTKIFYNQQNHYDGSTGKFHCNIPGLYYFAYHITVYMKDVKVSLFKKDKAMLFTYDQYQENNVDQASGSVLLHLEVGDQVWLQVYGEGERNGLYADNDNDSTFTGFLLYHDTN
effect on AMPK activity (AMPK; liver cells): stimulates AMPK activity | effect on AMPK activity (AMPK; skeletal muscle): stimulate AMPK activity

Source: patent US20060147947A1, “AMPK pathway components” (priority 2002, published 2006)
